Data from patent US20170265465A1, “BIORATIONAL TREATMENT PRODUCTS AND METHODS OF USING SAME” (Board of Trustees of Michigan State University, priority 2014, published 2017).

Tests used:
Assay type in all cases: in vivo
[1] = test system: creeping bentgrass (Agrostis palustris) putting green; test: Example 11: dried clippings weights; conditions: urea only 0.2 lb. N/1000 ft^2, no bio-adjuvant
Procedure: (§1) Some biomass ratings were subjective visual estimations based on appearance of a combination of increased biomass and increased density on a 1 (least increase) to 9 (most increase) scale. Objective biomass ratings were also performed based on an increase in dried weight of clippings. Clippings were collected over pre-measured plot areas in each treatment replicate using a Toro® brand walk-behind greens mower Model Greensmaster 8000 at the height described in this Example and dried in a drying oven (60° C.) for approximately 48 hours before being weighed.
(§2) Treatments were applied in the same manner and using the same equipment as previously described in Example 1. Turfgrass quality ratings and biomass ratings were performed as described in Example 1. Clippings were also collected as described in Example 1.
(§3) Treatments were applied once only to 2 ft ([…])×10.5 ft (3.2 m) plots of turfgrass on Apr. 1, 2015, while the turfgrass was still in winter dormancy (desiccated, brown, and thin). No additional applications were made to the study area. The study was rated visually for turfgrass biomass increase on Apr. 3, 2015 (2 days after treatment), on Apr. 11, 2015, and on Apr. 17, 2015. Turfgrass quality ratings were taken on Apr. 11, 2015 and Apr. 17, 2015. Turfgrass clippings were collected, dried, and weighed on Apr. 19, 2015 and May 2, 2015.

[2] = test system: creeping bentgrass (Agrostis palustris) putting green; test: Example 11, 2015 spring green-up (dormancy break) study: visual turfgrass biomass rating; conditions: urea only 0.2 lb. N/1000 ft^2, no bio-adjuvant; scale 1-5
Procedure: as §1, with “Some biomass ratings were subjective visual estimations based on appearance of a combination of increased biomass and increased density on a 1 (least increase) to 9 (most increase) scale.” left out
as §2, §3

[3] = test system: creeping bentgrass (Agrostis palustris) putting green; test: Example 11: turfgrass quality rating; conditions: scale 1-9, urea 0.2 lb. N/1000 ft^2
Procedure: as §2, §3

For `NC(N)=O` [Urea only], the “Clippings (Biomass) Dry wt (g) Apr. 19, 2015 Mean” value [1] was 4.623 g, the “Clippings (Biomass) Dry wt (g) May 2, 2015 Mean” value [1] was 6.175 g and the “Appearance (Biomass Increase) Apr. 3, 2015 Mean” value [2] was 1.5. The “Appearance (Biomass Increase) Apr. 11, 2015 Mean” value [2] was 2.5, the “Appearance (Biomass Increase) Apr. 17, 2015 Mean” value [2] was 3 and the “Appearance (Biomass Increase) Apr. 25, 2015 Mean” value [2] was 2.25. For the same compound, the “Turfgrass Quality” value ([3]; Apr. 11, 2015) was 5.5, the “Turfgrass Quality” value ([3]; Apr. 17, 2015) was 5.5 and the “Turfgrass Quality” value ([3]; Apr. 25, 2015) was 5.75.
